# Starred links: 1 amine or outer side, 2 acyl side, 3 side chain; linkers in the order of their positions; H or OH if unused. Positions of bridges follow the written chain, without caps; N, C: chain ends. Non-standard residues stand in square brackets, D forms with d. Residues, ends and D or L forms follow the SMILES beside them. Groups on a side chain read outwards from the residue. *: point of attachment. Chenodeoxycholyl = C[C@H](CCC(=O)*)[C@H]1CC[C@H]2[C@@H]3[C@H](O)C[C@@H]4C[C@H](O)CC[C@]4(C)[C@H]3CC[C@]12C; Ursodeoxycholyl = C[C@H](CCC(=O)*)[C@H]1CC[C@H]2[C@@H]3[C@@H](O)C[C@@H]4C[C@H](O)CC[C@]4(C)[C@H]3CC[C@]12C; Cholyl = C[C@H](CCC(=O)*)[C@H]1CC[C@H]2[C@@H]3[C@H](O)C[C@@H]4C[C@H](O)CC[C@]4(C)[C@H]3C[C@H](O)[C@]12C; Deoxycholoyl = C[C@H](CCC(=O)*)[C@H]1CC[C@H]2[C@@H]3CC[C@@H]4C[C@H](O)CC[C@]4(C)[C@H]3C[C@H](O)[C@]12C; Lithocholoyl = C[C@H](CCC(=O)*)[C@H]1CC[C@H]2[C@@H]3CC[C@@H]4C[C@H](O)CC[C@]4(C)[C@H]3CC[C@]12C; X36 = C[C@H](CCC(=O)*)[C@H]1CC[C@H]2[C@@H]3CC[C@@H]4C[C@H](O)CC[C@]4(C)[C@H]3CC(O)[C@]12C; Trp(1-CH2CO2Me) = COC(=O)Cn1cc(C[C@H](N)C(=O)O)c2ccccc21; X29 = CN(C)C(=O)Cn1cc(C[C@H](N[*:1])C(=O)[*:2])c2ccccc21; Trp(1-CH2COOH) = N[C@@H](Cc1cn(CC(=O)O)c2ccccc12)C(=O)O; Hyp = O=C(O)[C@@H]1C[C@@H](O)CN1; NMeNle = CCCC[C@H](NC)C(=O)O; NMeA = CN[C@@H](C)C(=O)O; Dab = NCC[C@H](N)C(=O)O; Dap = NC[C@H](N)C(=O)O
# Biological target: T1, PD-1/PD-L1 (Homo sapiens, UniProt Q9NZQ7)
# T1 construct: TVMV protease site (C); made in house; host or cells: HEK293T cells
# T1 sequence (Q9NZQ7 18-239): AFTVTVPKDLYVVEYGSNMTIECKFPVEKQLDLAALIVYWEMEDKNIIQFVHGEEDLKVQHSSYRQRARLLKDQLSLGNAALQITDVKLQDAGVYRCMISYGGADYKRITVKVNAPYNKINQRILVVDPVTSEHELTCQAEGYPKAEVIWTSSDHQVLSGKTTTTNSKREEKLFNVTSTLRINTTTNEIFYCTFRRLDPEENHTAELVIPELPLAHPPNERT
# Assay: PD-1/PD-L1 Homogenous Time-Resolved Fluorescence (HTRF) binding assay
# Details: PD-L1-His 10 nM, PD-1-Ig 20 nM; read-out: HTRF IC50
# From the text: The ability of the compounds of formula (I) to bind to PD-L1 was investigated using a PD-1/PD-L1 Homogenous Time-Resolved Fluorescence (HTRF) binding assay.
# The interaction of PD-1 and PD-L1 can be assessed using soluble, purified preparations of the extracellular domains of the two proteins. The PD-1 and PD-L1 protein extracellular domains were expressed as fusion proteins with detection tags, for PD-1, the tag was the Fc portion of Immunoglobulin (PD-1-Ig) and for PD-L1 it was the 6 histidine motif (PD-L1-His). All binding studies were performed in an HTRF assay buffer consisting of dPBS supplemented with 0.1% […] bovine serum albumin and 0.05% (v/v) Tween-20. For the h/PD-L1-His binding assay, inhibitors were pre-incubated with PD-L1-His (10 nM final) for 15 m in 4 μl of assay buffer, followed by addition of PD-1-Ig (20 nM final) in 1 μl of assay buffer and further incubation for 15 m. HTRF detection was achieved using europium crypate-labeled anti-Ig (1 nM final) and allophycocyanin (APC) labeled anti-His (20 nM final). Antibodies were diluted in HTRF detection buffer and 5 μl was dispensed on top of the binding reaction. The reaction mixture was allowed to equilibrate for 30 minutes and the resulting signal (665 nm/620 nm ratio) was obtained using an EnVision fluorometer. Additional binding assays were established between the human proteins PD-1-Ig/PD-L2-His (20 & 5 nM, respectively) and CD80-His/PD-L1-Ig (100 & 10 nM, respectively).
# Recombinant Proteins: Human PD-1 (25-167) with a C-terminal human Fc domain of immunoglobulin G (Ig) epitope tag [hPD-1 (25-167)-3S-IG] and human PD-L1 (18-239) with a C-terminal His epitope tag [hPD-L1(18-239)-TVMV-His] were expressed in HEK293T cells and purified sequentially by ProteinA affinity chromatography and size exclusion chromatography. Human PD-L2-His and CD80-His was obtained through commercial sources.
# Table 1 lists the IC50 values for representative examples of this disclosure measured in the PD-1/PD-L1 Homogenous Time-Resolved Fluorescence (HTRF) binding assay.
structure (smiles),measurement,value
CCCC[C@H]1C(=O)N(C)[C@@H](CCCC)C(=O)N[C@@H](CC(C)C)C(=O)N[C@H](C(=O)NCC(N)=O)CSCC(=O)N[C@@H](Cc2ccc(O)cc2)C(=O)N(C)[C@@H](C)C(=O)N[C@@H](CC(N)=O)C(=O)N2CCC[C@H]2C(=O)N[C@@H](CNC(=O)CC[C@@H](C)[C@H]2CC[C@H]3[C@@H]4CC[C@@H]5C[C@H](O)CC[C@]5(C)[C@H]4C[C@H](O)[C@]23C)C(=O)N[C@@H](CC(C)C)C(=O)N2C[C@H](O)C[C@H]2C(=O)N[C@@H](Cc2c[nH]c3ccccc23)C(=O)N[C@@H](CCNC(=O)CC[C@@H](C)[C@H]2CC[C@H]3[C@@H]4[C@H](O)C[C@@H]5C[C@H](O)CC[C@]5(C)[C@H]4CC[C@]23C)C(=O)N[C@@H](Cc2cn(CC(=O)OC)c3ccccc23)C(=O)N1C [Example 1001] ({CH2CO}-Y[NMeA]NP[Dap](Deoxycholoyl)L[Hyp]W[Dab](Chenodeoxycholyl)[Trp(1-CH2CO2Me)][NMeNle][NMeNle]LCG-NH2; thioether N-14),IC50,9.5 nM
CCCC[C@H]1C(=O)N(C)[C@@H](CCCC)C(=O)N[C@@H](CC(C)C)C(=O)N[C@H](C(=O)NCC(N)=O)CSCC(=O)N[C@@H](Cc2ccc(O)cc2)C(=O)N(C)[C@@H](C)C(=O)N[C@@H](CC(N)=O)C(=O)N2CCC[C@H]2C(=O)N[C@@H](CNC(=O)CC[C@@H](C)[C@H]2CC[C@H]3[C@@H]4CC[C@@H]5C[C@H](O)CC[C@]5(C)[C@H]4C[C@H](O)[C@]23C)C(=O)N[C@@H](CC(C)C)C(=O)N2C[C@H](O)C[C@H]2C(=O)N[C@@H](Cc2c[nH]c3ccccc23)C(=O)N[C@@H](CCNC(=O)CC[C@@H](C)[C@H]2CC[C@H]3[C@@H]4[C@H](O)C[C@@H]5C[C@H](O)CC[C@]5(C)[C@H]4CC[C@]23C)C(=O)N[C@@H](Cc2cn(CC(=O)O)c3ccccc23)C(=O)N1C [Example 1002] ({CH2CO}-Y[NMeA]NP[Dap](Deoxycholoyl)L[Hyp]W[Dab](Chenodeoxycholyl)[Trp(1-CH2COOH)][NMeNle][NMeNle]LCG-NH2; thioether N-14),IC50,11 nM
CCCC[C@H]1C(=O)N(C)[C@@H](CCCC)C(=O)N[C@@H](CC(C)C)C(=O)N[C@H](C(=O)NCC(N)=O)CSCC(=O)N[C@@H](Cc2ccc(O)cc2)C(=O)N(C)[C@@H](C)C(=O)N[C@@H](CC(N)=O)C(=O)N2CCC[C@H]2C(=O)N[C@@H](CNC(=O)CC[C@@H](C)[C@H]2CC[C@H]3[C@@H]4CC[C@@H]5C[C@H](O)CC[C@]5(C)[C@H]4C[C@H](O)[C@]23C)C(=O)N[C@@H](CC(C)C)C(=O)N2C[C@H](O)C[C@H]2C(=O)N[C@@H](Cc2c[nH]c3ccccc23)C(=O)N[C@@H](CCNC(=O)CC[C@@H](C)[C@H]2CC[C@H]3[C@@H]4CC[C@@H]5C[C@H](O)CC[C@]5(C)[C@H]4CC(O)[C@]23C)C(=O)N[C@@H](Cc2cn(CC(=O)OC)c3ccccc23)C(=O)N1C (stereo partly drawn) [Example 1003] ({CH2CO}-Y[NMeA]NP[Dap](Deoxycholoyl)L[Hyp]W[Dab](X36)[Trp(1-CH2CO2Me)][NMeNle][NMeNle]LCG-NH2; thioether N-14),IC50,> 10000 nM
CCCC[C@H]1C(=O)N(C)[C@@H](CCCC)C(=O)N[C@@H](CC(C)C)C(=O)N[C@H](C(=O)NCC(N)=O)CSCC(=O)N[C@@H](Cc2ccc(O)cc2)C(=O)N(C)[C@@H](C)C(=O)N[C@@H](CC(N)=O)C(=O)N2CCC[C@H]2C(=O)N[C@@H](CNC(=O)CC[C@@H](C)[C@H]2CC[C@H]3[C@@H]4CC[C@@H]5C[C@H](O)CC[C@]5(C)[C@H]4CC[C@]23C)C(=O)N[C@@H](CC(C)C)C(=O)N2C[C@H](O)C[C@H]2C(=O)N[C@@H](Cc2c[nH]c3ccccc23)C(=O)N[C@@H](CCNC(=O)CC[C@@H](C)[C@H]2CC[C@H]3[C@@H]4CC[C@@H]5C[C@H](O)CC[C@]5(C)[C@H]4CC[C@]23C)C(=O)N[C@@H](Cc2cn(CC(=O)OC)c3ccccc23)C(=O)N1C [Example 1004] ({CH2CO}-Y[NMeA]NP[Dap](Lithocholoyl)L[Hyp]W[Dab](Lithocholoyl)[Trp(1-CH2CO2Me)][NMeNle][NMeNle]LCG-NH2; thioether N-14),IC50,> 10000 nM
CCCC[C@H]1C(=O)N(C)[C@@H](CCCC)C(=O)N[C@@H](CC(C)C)C(=O)N[C@H](C(=O)NCC(N)=O)CSCC(=O)N[C@@H](Cc2ccc(O)cc2)C(=O)N(C)[C@@H](C)C(=O)N[C@@H](CC(N)=O)C(=O)N2CCC[C@H]2C(=O)N[C@@H](CNC(=O)CC[C@@H](C)[C@H]2CC[C@H]3[C@@H]4[C@H](O)C[C@@H]5C[C@H](O)CC[C@]5(C)[C@H]4CC[C@]23C)C(=O)N[C@@H](CC(C)C)C(=O)N2C[C@H](O)C[C@H]2C(=O)N[C@@H](Cc2c[nH]c3ccccc23)C(=O)N[C@@H](CCNC(=O)CC[C@@H](C)[C@H]2CC[C@H]3[C@@H]4[C@H](O)C[C@@H]5C[C@H](O)CC[C@]5(C)[C@H]4CC[C@]23C)C(=O)N[C@@H](Cc2cn(CC(=O)OC)c3ccccc23)C(=O)N1C [Example 1005] ({CH2CO}-Y[NMeA]NP[Dap](Chenodeoxycholyl)L[Hyp]W[Dab](Chenodeoxycholyl)[Trp(1-CH2CO2Me)][NMeNle][NMeNle]LCG-NH2; thioether N-14),IC50,8400 nM
CCCC[C@H]1C(=O)N(C)[C@@H](CCCC)C(=O)N[C@@H](CC(C)C)C(=O)N[C@H](C(=O)NCC(N)=O)CSCC(=O)N[C@@H](Cc2ccc(O)cc2)C(=O)N(C)[C@@H](C)C(=O)N[C@@H](CC(N)=O)C(=O)N2CCC[C@H]2C(=O)N[C@@H](CNC(=O)CC[C@@H](C)[C@H]2CC[C@H]3[C@@H]4[C@@H](O)C[C@@H]5C[C@H](O)CC[C@]5(C)[C@H]4CC[C@]23C)C(=O)N[C@@H](CC(C)C)C(=O)N2C[C@H](O)C[C@H]2C(=O)N[C@@H](Cc2c[nH]c3ccccc23)C(=O)N[C@@H](CCNC(=O)CC[C@@H](C)[C@H]2CC[C@H]3[C@@H]4[C@@H](O)C[C@@H]5C[C@H](O)CC[C@]5(C)[C@H]4CC[C@]23C)C(=O)N[C@@H](Cc2cn(CC(=O)OC)c3ccccc23)C(=O)N1C [Example 1006] ({CH2CO}-Y[NMeA]NP[Dap](Ursodeoxycholyl)L[Hyp]W[Dab](Ursodeoxycholyl)[Trp(1-CH2CO2Me)][NMeNle][NMeNle]LCG-NH2; thioether N-14),IC50,> 10000 nM
CCCC[C@H]1C(=O)N(C)[C@@H](CCCC)C(=O)N[C@@H](CC(C)C)C(=O)N[C@H](C(=O)NCC(N)=O)CSCC(=O)N[C@@H](Cc2ccc(O)cc2)C(=O)N(C)[C@@H](C)C(=O)N[C@@H](CC(N)=O)C(=O)N2CCC[C@H]2C(=O)N[C@@H](CNC(=O)CC[C@@H](C)[C@H]2CC[C@H]3[C@@H]4[C@H](O)C[C@@H]5C[C@H](O)CC[C@]5(C)[C@H]4C[C@H](O)[C@]23C)C(=O)N[C@@H](CC(C)C)C(=O)N2C[C@H](O)C[C@H]2C(=O)N[C@@H](Cc2c[nH]c3ccccc23)C(=O)N[C@@H](CCN)C(=O)N[C@@H](Cc2cn(CC(=O)OC)c3ccccc23)C(=O)N1C [Example 1007] ({CH2CO}-Y[NMeA]NP[Dap](Cholyl)L[Hyp]W[Dab][Trp(1-CH2CO2Me)][NMeNle][NMeNle]LCG-NH2; thioether N-14),IC50,6.8 nM
CCCC[C@H]1C(=O)N(C)[C@@H](CCCC)C(=O)N[C@@H](CC(C)C)C(=O)N[C@H](C(=O)NCC(N)=O)CSCC(=O)N[C@@H](Cc2ccc(O)cc2)C(=O)N(C)[C@@H](C)C(=O)N[C@@H](CC(N)=O)C(=O)N2CCC[C@H]2C(=O)N[C@@H](CNC(=O)CNC(=O)CC[C@@H](C)[C@H]2CC[C@H]3[C@@H]4[C@H](O)C[C@@H]5C[C@H](O)CC[C@]5(C)[C@H]4C[C@H](O)[C@]23C)C(=O)N[C@@H](CC(C)C)C(=O)N2C[C@H](O)C[C@H]2C(=O)N[C@@H](Cc2c[nH]c3ccccc23)C(=O)N[C@@H](CCN)C(=O)N[C@@H](Cc2cn(CC(=O)N(C)C)c3ccccc23)C(=O)N1C [Example 1008] ({CH2CO}-Y[NMeA]NP[Dap]([Gly-Cholyl])L[Hyp]W[Dab][X29][NMeNle][NMeNle]LCG-NH2; thioether N-14),IC50,14 nM
CCCC[C@H]1C(=O)N(C)[C@@H](CCCC)C(=O)N[C@@H](CC(C)C)C(=O)N[C@H](C(=O)NCC(N)=O)CSCC(=O)N[C@@H](Cc2ccc(O)cc2)C(=O)N(C)[C@@H](C)C(=O)N[C@@H](CC(N)=O)C(=O)N2CCC[C@H]2C(=O)N[C@@H](CNC(=O)CC[C@@H](C)[C@H]2CC[C@H]3[C@@H]4CC[C@@H]5C[C@H](O)CC[C@]5(C)[C@H]4CC[C@]23C)C(=O)N[C@@H](CC(C)C)C(=O)N2C[C@H](O)C[C@H]2C(=O)N[C@@H](Cc2c[nH]c3ccccc23)C(=O)N[C@@H](CCN)C(=O)N[C@@H](Cc2cn(CC(=O)O)c3ccccc23)C(=O)N1C [Example 1009] ({CH2CO}-Y[NMeA]NP[Dap](Lithocholoyl)L[Hyp]W[Dab][Trp(1-CH2COOH)][NMeNle][NMeNle]LCG-NH2; thioether N-14),IC50,17 nM

# From patent US20230183292A1, “IMMUNOMODULATORS” (priority 2020, published 2023)
